The values that follow come from patent US7390804B2, “N-containing five-membered ring compounds and pharmaceutical agents comprising the same as active ingredient” (Ono Pharmaceutical Co., Ltd., priority 2000, dated 2008).

One test has as its target T1, Cathepsin K (Homo sapiens, UniProt P43235).
T1 sequence (P43235 115-329): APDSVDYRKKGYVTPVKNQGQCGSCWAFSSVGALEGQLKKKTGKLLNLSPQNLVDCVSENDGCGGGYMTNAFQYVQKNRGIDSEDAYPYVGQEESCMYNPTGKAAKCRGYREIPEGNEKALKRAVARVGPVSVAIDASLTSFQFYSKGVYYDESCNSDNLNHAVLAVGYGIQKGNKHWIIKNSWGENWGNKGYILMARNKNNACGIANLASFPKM
Briefly: Measurement of Cathepsin K inhibitory activity. The class given is biochemical. The conditions noted are these: Dixon plot, pH 5.5, 37° C. How it is done: (i) Measurement of Cathepsin K Inhibitory Activity
65 μL of Cathepsin K enzyme reaction buffer (50 mmol/L of 2-(N-morpholino)ethanesulfonate, 2 mmol/L of ethylenediamine tetraacetate (EDTA) and 4 mmol/L of dithiothreitol (DTT) were mixed to adjust to pH 5.5), 5 μL of cysteine protease inhibitor solution of several concentrations, 20 μL of synthesized substrate (t-butyloxycarbonyl-L-alanyl-glycyl-L-prolyl-L-arginine-4-methyl-chromanyl-7-amide) solution of several concentrations and 10 μL of cathepsin K enzyme solution were mixed and the increase of fluorescence intensity when reacted at 37° C. was measured (λ ex (excitation wavelength)=355 nm, λ em (fluorescence wavelength)=460 nm). As to the substrate and the compound of the present invention, enzyme reactions were carried out in combination of several appropriate concentrations and Dixon plotting was prepared, to define the absolute value of X-coordinate of the intersection point of the graph as Ki value.

The target of another test is cathepsin S (Homo sapiens, UniProt P25774). Briefly: Measurement of Cathepsin S inhibitory activity. The class given is biochemical. The conditions noted are these: pH 6.5, 37° C. How it is done: (iii) Measurement of Cathepsin S Inhibitory Activity
10 μL of synthesized substrate (carbobenzoxy-L-leucyl-L-leucyl-L-arguinine-4-methyl-chromanyl-7-amide) solution and 5 μL of cysteine protease inhibitor solution of several concentrations, 75)L of cathepsin S enzyme reaction buffer (100 mmol/L of sodium phosphate, 2 mmol/L of EDTA, 2 mmol/L of DTT were mixed to adjust to pH 6.5) and 10 μL of cathepsin S enzyme solution were mixed and the increase of fluorescence intensity was measured (λ ex(excitation wavelength)=355 nm, λ em (fluorescence wavelength)=460 nm) when reacted at 37° C.

A word on the Ki: it is the dissociation constant of the complex between target and ligand, obtained from inhibition or displacement. What is called inhibition is the share of the control response that was lost under treatment. A higher inhibition goes with strong suppression.

cathepsin S, sequence (P25774 115-331, species assumed): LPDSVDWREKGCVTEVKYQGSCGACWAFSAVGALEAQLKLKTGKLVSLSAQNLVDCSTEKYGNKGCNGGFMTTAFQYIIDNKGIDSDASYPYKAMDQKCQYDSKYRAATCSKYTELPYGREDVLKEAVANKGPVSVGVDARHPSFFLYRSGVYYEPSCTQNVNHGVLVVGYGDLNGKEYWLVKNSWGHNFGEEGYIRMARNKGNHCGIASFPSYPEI

Turning to `CC(C)C[C@H](NC(=O)[C@H](CC(C)C)NC(=O)OCc1ccccc1)C(=O)Cn1nnc(-c2c(F)c(F)c(F)c(F)c2F)n1` [example 1(40), 2(S)-N-[3(S)-1-(5-(perfluorophenyl)tetrazol-2-yl)-2-oxo-5-methyl-3-hexyl]-2-benzyloxycarbonylamino-4-methylpentanamide], the Ki on Cathepsin K is 21 nM.
Same read-out and setting: under `CC(C)C[C@H](NC(=O)[C@H](CC(C)C)NC(=O)OCc1ccccc1)C(=O)Cn1c(-c2ccc(F)cc2)noc1=O` [example 3(7), 2(S)-N-[3(S)-1-(5-oxo-3-(4-fluorophenyl)-1,2,4-oxadiazolin-4-yl)-2-oxo-5-methyl-3-hexyl]-2-benzyloxycarbonylamino-4-methylpentanamide] stands 36 nM.
In the case of `CC(C)C[C@H](NC(=O)[C@H](CC(C)C)NC(=O)OCc1ccccc1)C(=O)Cn1nc(CCc2ccccc2)oc1=O` [example 3(17), 2(S)-N-[3(S)-1-(5-oxo-2-(2-phenylethyl)-1,3,4-oxadiazolin-4-yl)-2-oxo-5-methyl-3-hexyl]-2-benzyloxycarbonylamino-4-methylpentanamide], at 1 µM the inhibition against cathepsin S was 90%.
